Among the data in patent US7081468B2, “Ortho-substituted anthranilic acid amides and their use as medicaments” (Schering AG, priority 2000, dated 2006) are IC50 and melting point values, retold here.

One series has as its target C-Kit (Homo sapiens, UniProt P10721). Description: C-Kit-isolated kinase-inhibition test. The format is biochemical. Particulars: 10 minutes incubation. The method, then:
C-Kit-Isolated Kinase-Inhibition Test
Assay Solutions Substrate Solutions for 125 Assays:
10 μl of ATP (37.5 μM), 25 μCi of γ33P-ATP (˜+2.5 μl of Amersham redivue solution) and 10 μl of poly-(glu,tyr) are mixed with 1.23 ml of solvent (1×).
The compounds are brought to the desired concentration in the solvent (1×).
The corresponding enzymatic preparation is brought to the necessary concentration with the solvent (1×) to obtain 1.24 ml. Then, 12.5 μl of sodium vanadate solution is added.
The components are added in the following sequence to a microtiter plate with round or stippled floors:
10 μl of the inhibitor in 3× final concentration,
10 μl of substrate mixture,
said components are mixed, and the reaction is started by adding:
10 μl of enzyme preparation.
The batch is incubated for 10 minutes and then brought to a halt by adding 10 μl of stop solution. 10 μl of the thus treated batch is added to the phosphocellulose filter, rewashed in phosphoric acid, then dried and then melted in a meltilex scintillator and measured.

The target in another series is KDR kinase (Homo sapiens, UniProt P35968). Description: Inhibition of the KDR kinase activity (33P-ATP, poly-(Glu4Tyr) filter assay). The format is biochemical. Particulars: 10 minutes at room temperature. The method, then:
Solutions Required for the Tests
• Stock solution A: 3 mmol of ATP in water, pH 7.0 (−70° C.) • Stock solution B: g-33P-ATP 1 mCi/100 μl • Stock solution C: poly-(Glu4Tyr) 10 mg/ml in water Solution for Dilutions • Substrate solvent: 10 mmol of DTT, 10 mmol of manganese chloride, 100 mmol of magnesium chloride • Enzyme solution: 120 mmol of tris/HCl, pH 7.5, 10 μM of sodium vanadium oxide Sample Application 1 Inhibition of the KDR Kinase Activity in the Presence of the Compounds According to the Invention
In a microtiter plate (without protein binding) that tapers to a point, 10 μl of substrate mix (10 μl of volume of ATP stock solution A+25 μCi of g-33P-ATP (about 2.5 μl of stock solution B)+30 μl of poly-(Glu4Tyr) stock solution C+1.21 ml of substrate solvent), 10 μl of inhibitor solution (substances corresponding to the dilutions, 3% DMSO in substrate solvent as a control) and 10 μl of enzyme solution (11.25 μg of enzyme stock solution (KDR or FLT-1 kinase) are added at 4° C. in 1.25 ml of enzyme solution (dilute). It is thoroughly mixed and incubated for 10 minutes at room temperature. Then, 10 μl of stop solution (250 mmol of EDTA, pH 7.0) is added, mixed, and 10 μl of the solution is transferred to a P 81 phosphocellulose filter. Then, it is washed several times in 0.1 M phosphoric acid. The filter paper is dried, coated with Meltilex and measured in a microbeta counter.
The IC50 values are determined from the inhibitor concentration that is necessary to inhibit the phosphate incorporation to 50% of the uninhibited incorporation after removal of the blank reading (EDTA-stopped reaction).

Chain of C-Kit (P10721 26-976): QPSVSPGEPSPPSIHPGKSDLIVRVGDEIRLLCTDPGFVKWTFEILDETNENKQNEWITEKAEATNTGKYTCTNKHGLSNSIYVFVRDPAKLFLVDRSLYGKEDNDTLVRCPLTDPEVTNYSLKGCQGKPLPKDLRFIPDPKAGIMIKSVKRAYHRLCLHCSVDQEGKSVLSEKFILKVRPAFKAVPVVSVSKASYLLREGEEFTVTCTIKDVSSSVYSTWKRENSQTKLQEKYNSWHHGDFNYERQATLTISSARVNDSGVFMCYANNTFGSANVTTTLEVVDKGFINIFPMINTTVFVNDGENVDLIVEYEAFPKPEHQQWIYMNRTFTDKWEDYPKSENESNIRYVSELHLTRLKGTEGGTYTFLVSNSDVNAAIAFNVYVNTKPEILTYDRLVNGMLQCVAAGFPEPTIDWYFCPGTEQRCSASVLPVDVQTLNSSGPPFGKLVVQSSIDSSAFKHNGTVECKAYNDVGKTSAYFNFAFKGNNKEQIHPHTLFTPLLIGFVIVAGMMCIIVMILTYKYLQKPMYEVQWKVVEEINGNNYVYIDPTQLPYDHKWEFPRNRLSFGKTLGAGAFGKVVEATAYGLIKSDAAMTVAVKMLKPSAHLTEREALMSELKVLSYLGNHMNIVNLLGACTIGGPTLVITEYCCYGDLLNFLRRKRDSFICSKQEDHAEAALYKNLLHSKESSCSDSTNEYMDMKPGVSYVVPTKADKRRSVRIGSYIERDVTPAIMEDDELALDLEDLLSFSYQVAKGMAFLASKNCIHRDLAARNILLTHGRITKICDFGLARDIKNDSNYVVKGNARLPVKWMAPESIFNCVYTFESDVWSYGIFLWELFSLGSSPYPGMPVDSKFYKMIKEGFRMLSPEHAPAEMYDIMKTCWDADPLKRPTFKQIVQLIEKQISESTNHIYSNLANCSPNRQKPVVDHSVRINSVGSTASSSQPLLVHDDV
Chain of KDR kinase (P35968 20-1356): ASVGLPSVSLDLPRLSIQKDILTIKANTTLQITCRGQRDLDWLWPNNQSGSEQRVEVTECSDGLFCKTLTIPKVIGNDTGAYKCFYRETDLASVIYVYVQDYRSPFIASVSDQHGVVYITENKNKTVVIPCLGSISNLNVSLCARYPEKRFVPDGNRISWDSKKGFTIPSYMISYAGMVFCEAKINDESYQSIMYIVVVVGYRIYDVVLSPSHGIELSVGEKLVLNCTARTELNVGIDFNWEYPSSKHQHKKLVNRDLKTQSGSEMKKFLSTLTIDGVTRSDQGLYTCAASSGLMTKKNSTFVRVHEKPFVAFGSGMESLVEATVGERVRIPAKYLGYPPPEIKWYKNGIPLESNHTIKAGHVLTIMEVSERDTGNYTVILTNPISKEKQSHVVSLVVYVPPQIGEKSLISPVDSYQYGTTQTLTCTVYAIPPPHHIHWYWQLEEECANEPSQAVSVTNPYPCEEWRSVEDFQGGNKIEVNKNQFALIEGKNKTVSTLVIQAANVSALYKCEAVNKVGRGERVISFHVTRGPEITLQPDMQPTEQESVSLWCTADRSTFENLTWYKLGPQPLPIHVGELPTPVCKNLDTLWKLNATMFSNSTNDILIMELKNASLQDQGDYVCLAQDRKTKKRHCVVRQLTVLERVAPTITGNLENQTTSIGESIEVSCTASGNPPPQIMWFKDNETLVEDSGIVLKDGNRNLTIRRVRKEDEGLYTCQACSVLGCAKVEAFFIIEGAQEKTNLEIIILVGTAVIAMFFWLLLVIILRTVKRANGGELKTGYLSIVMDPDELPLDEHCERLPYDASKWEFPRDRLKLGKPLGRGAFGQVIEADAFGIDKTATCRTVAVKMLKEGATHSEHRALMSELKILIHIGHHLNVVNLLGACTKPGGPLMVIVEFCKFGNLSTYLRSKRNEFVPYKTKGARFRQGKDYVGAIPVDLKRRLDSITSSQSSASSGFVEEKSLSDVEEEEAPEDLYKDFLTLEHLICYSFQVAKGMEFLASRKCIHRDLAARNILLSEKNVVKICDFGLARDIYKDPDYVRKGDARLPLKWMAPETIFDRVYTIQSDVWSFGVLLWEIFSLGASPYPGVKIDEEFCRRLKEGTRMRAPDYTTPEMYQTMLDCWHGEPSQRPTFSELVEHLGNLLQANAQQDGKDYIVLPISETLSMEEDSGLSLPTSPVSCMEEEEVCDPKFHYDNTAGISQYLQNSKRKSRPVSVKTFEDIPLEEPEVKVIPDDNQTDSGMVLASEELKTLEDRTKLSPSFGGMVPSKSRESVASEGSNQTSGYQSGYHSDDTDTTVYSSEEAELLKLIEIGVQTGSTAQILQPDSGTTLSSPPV

`O=C(Nc1cc2cn[nH]c2cc1Cl)c1ccccc1NCc1ccncc1` [Example 2, N-(6-Chloroindazol-5-yl)-2-[(4-pyridyl)methyl]amino-benzoic acid amide]: the IC50 at C-Kit was more than 10000 nM; against KDR kinase it was 200 nM.
In the case of `O=C(Nc1cc2cc(Br)ccc2oc1=O)c1ccccc1NCc1ccncc1` [Example 7], the melting point is 198 to 200 °C. The concentration for half-maximal inhibition (IC50) on C-Kit is more than 10000 nM. Also, half-maximal inhibition against KDR kinase (IC50) required 200 nM.
`O=C(Nc1cc(C(F)(F)F)ccc1C(F)(F)F)c1ccccc1NCc1ccncc1` [Example 17] showed a melting point of 68 °C. Further, the 50% inhibitory concentration (IC50) against C-Kit is more than 10000 nM.
Consider `Cc1cc2[nH]ncc2cc1NC(=O)c1ccccc1NCc1ccncc1` [Example 11], for which the melting point was found to be 224.2 °C. At C-Kit, this molecule showed a concentration for half-maximal inhibition (IC50) of more than 10000 nM. On KDR kinase, this molecule showed a concentration for half-maximal inhibition (IC50) of 1000 nM.
Consider `O=C(Nc1cc(C(F)(F)F)ccc1F)c1ccccc1NCc1ccncc1` [Example 15], for which the IC50 at C-Kit is 2000 nM; against KDR kinase, 2 nM.
`O=C(Nc1cc2cc(Cl)ccc2oc1=O)c1ccccc1NCc1ccncc1` [Example 6] registered a melting point of 182 to 184 °C. The molecule further had an IC50 on KDR kinase of 200 nM.
Turning to `O=C(Nc1cc2ccccc2oc1=O)c1ccccc1NCc1ccncc1` [Example 1, N-[2-Oxo-2H-1-benzopyran-3-yl-]-2-[(4-pyridyl)methyl]amino-benzoic acid amide], the figures for the half-maximal inhibitory concentration (IC50) against C-Kit and against KDR kinase were 6000 nM and 3 nM, respectively.
The molecule `COc1ccc2cc(NC(=O)c3ccccc3NCc3ccncc3)c(=O)oc2c1` [Example 5] came in with a melting point of 171 to 172 °C. This molecule registered a 50% inhibitory concentration (IC50) on C-Kit of more than 10000 nM. Moreover, the IC50 on KDR kinase is 10 nM.
Take `Cc1cc2oc(=O)ccc2cc1NC(=O)c1ccccc1NCc1ccncc1` [Example 3]: the melting point is 191.2 °C. This molecule also registered an IC50 against C-Kit of 8000 nM. The molecule further displayed an IC50 against KDR kinase of 30 nM.
Take `O=C(Nc1cc(C(F)(F)F)ccc1Cl)c1ccccc1NCc1ccncc1` [Example 14]: the melting point worked out at 105 °C. At C-Kit, this molecule gave an IC50 of 5000 nM. Besides, the IC50 against KDR kinase was determined as 1 nM.
`Cc1cc2cc(Cl)ccc2nc1NC(=O)c1ccccc1NCc1ccc(O)nc1` [Example 28]: the melting point is 172 °C. The midpoint of inhibition at C-Kit, the IC50, lay at 500 nM. This molecule showed an IC50 against KDR kinase of 50 nM.
The like results for `COc1ccc(C(F)(F)F)cc1NC(=O)c1ccccc1NCc1ccncc1` [Example 13] were, in that order, 135 °C, 5000 nM and 50 nM.
The like results for `O=C(Nc1cc2[nH]ncc2cc1Cl)c1ccccc1NCc1ccncc1` [Example 10] were, in that order, 236.7 °C, more than 10000 nM and 10 nM.
On the same counts, the results for `O=C(Nc1ncc2ccccc2c1Br)c1ccccc1NCc1ccncc1` [Example 26] are 135.8 °C, 2000 nM and 1 nM.
`Cc1cc2cn[nH]c2cc1NC(=O)c1ccccc1NCc1ccncc1` [Example 9] displayed a concentration for half-maximal inhibition (IC50) against KDR kinase of 40 nM.

What is called IC50 is the point on the concentration scale where inhibition reaches its midpoint. Low values mean higher potency, high ones lower potency. Usually melting point stands for the temperature of the solid-liquid transition.
